Calls of active or inactive are those of the source. The rule behind the calls is not given here.
Tests used:
[1] = Growth inhibition of human COLO205 cells assessed as cell viability at 10 uM incubated for 48 hrs by sulforhodamine B assay; type: functional; settings: COLO 205, 48 h, read-out: Activity
SNB-19 = assay: Growth inhibition of human SNB19 cells assessed as cell viability at 10 uM incubated for 48 hrs by sulforhodamine B assay; type: functional; settings: SNB-19, 48 h, read-out: Activity
[2] = Growth inhibition of human Hs 578T cells assessed as cell viability at 10 uM incubated for 48 hrs by sulforhodamine B assay; type: functional; settings: read-out: Activity
M14 = assay: Growth inhibition of human M14 cells assessed as cell viability at 10 uM incubated for 48 hrs by sulforhodamine B assay; type: functional; settings: M14, 48 h, read-out: Activity
[3] = Growth inhibition of human LOXIMVI cells assessed as cell viability at 10 uM incubated for 48 hrs by sulforhodamine B assay; type: functional; settings: LOX IMVI, read-out: Activity
NCI-H460 = assay: Growth inhibition of human NCI-H460 cells assessed as cell viability at 10 uM incubated for 48 hrs by sulforhodamine B assay; type: functional; settings: NCI-H460, 48 h, read-out: Activity
HOP-62 = assay: Growth inhibition of human HOP62 cells assessed as cell viability at 10 uM incubated for 48 hrs by sulforhodamine B assay; type: functional; settings: HOP-62, 48 h, read-out: Activity
MDA-MB-468 = assay: Growth inhibition of human MDA-MB-468 cells assessed as cell viability at 10 uM incubated for 48 hrs by sulforhodamine B assay; type: functional; settings: MDA-MB-468, 48 h, read-out: Activity
PC-3 = assay: Growth inhibition of human PC3 cells assessed as cell viability at 10 uM incubated for 48 hrs by sulforhodamine B assay; type: functional; settings: PC-3, 48 h, read-out: Activity
[4] = Growth inhibition of human HOP92 cells assessed as cell viability at 10 uM incubated for 48 hrs by sulforhodamine B assay; type: functional; settings: HOP-92, 48 h, read-out: Activity
NCI-H23 = assay: Growth inhibition of human NCI-H23 cells assessed as cell viability at 10 uM incubated for 48 hrs by sulforhodamine B assay; type: functional; settings: NCI-H23, 48 h, read-out: Activity
786-0 = assay: Growth inhibition of human 786-0 cells assessed as cell viability at 10 uM incubated for 48 hrs by sulforhodamine B assay; type: functional; settings: 786-0, 48 h, read-out: Activity
SW-620 = assay: Growth inhibition of human SW620 cells assessed as cell viability at 10 uM incubated for 48 hrs by sulforhodamine B assay; type: functional; settings: SW-620, 48 h, read-out: Activity
OVCAR-5 = assay: Growth inhibition of human OVCAR5 cells assessed as cell viability at 10 uM incubated for 48 hrs by sulforhodamine B assay; type: functional; settings: OVCAR-5, 48 h, read-out: Activity
A498 = assay: Growth inhibition of human A498 cells assessed as cell viability at 10 uM incubated for 48 hrs by sulforhodamine B assay; type: functional; settings: A498, 48 h, read-out: Activity
SN12C = assay: Growth inhibition of human SN12C cells assessed as cell viability at 10 uM incubated for 48 hrs by sulforhodamine B assay; type: functional; settings: read-out: Activity
HCT-15 = assay: Growth inhibition of human HCT15 cells assessed as cell viability at 10 uM incubated for 48 hrs by sulforhodamine B assay; type: functional; settings: HCT-15, 48 h, read-out: Activity
CAKI-1 = assay: Growth inhibition of human CAKI-1 cells assessed as cell viability at 10 uM incubated for 48 hrs by sulforhodamine B assay; type: functional; settings: CAKI-1, 48 h, read-out: Activity
Rattus norvegicus = assay: Antidiabetic activity in Wistar rat assessed as reduction in blood glucose level at 30 mg/kg, po dosed 30 mins before glucose challenge and measured 30 and 60 mins post glucose challenge by OGTT method; type: functional, organism-based
Malme-3M = assay: Growth inhibition of human MALME-3M cells assessed as cell viability at 10 uM incubated for 48 hrs by sulforhodamine B assay; type: functional; settings: read-out: Activity
NCI-H226 = assay: Growth inhibition of human NCI-H226 cells assessed as cell viability at 10 uM incubated for 48 hrs by sulforhodamine B assay; type: functional; settings: NCI-H226, 48 h, read-out: Activity
A549 = assay: Growth inhibition of human A549/ATCC cells assessed as cell viability at 10 uM incubated for 48 hrs by sulforhodamine B assay; type: functional; settings: A549, 48 h, read-out: Activity
DU-145 = assay: Growth inhibition of human DU145 cells assessed as cell viability at 10 uM incubated for 48 hrs by sulforhodamine B assay; type: functional; settings: DU-145, 48 h, read-out: Activity
SK-MEL-5 = assay: Growth inhibition of human SK-MEL-5 cells assessed as cell viability at 10 uM incubated for 48 hrs by sulforhodamine B assay; type: functional; settings: SK-MEL-5, 48 h, read-out: Activity
[5] = Growth inhibition of human SF539 cells assessed as cell viability at 10 uM incubated for 48 hrs by sulforhodamine B assay; type: functional; settings: SF-539, 48 h, read-out: Activity
HCT-116 = assay: Growth inhibition of human HCT116 cells assessed as cell viability at 10 uM incubated for 48 hrs by sulforhodamine B assay; type: functional; settings: HCT-116, 48 h, read-out: Activity
OVCAR-3 = assay: Growth inhibition of human OVCAR3 cells assessed as cell viability at 10 uM incubated for 48 hrs by sulforhodamine B assay; type: functional; settings: OVCAR-3, 48 h, read-out: Activity
UACC-257 = assay: Growth inhibition of human UACC257 cells assessed as cell viability at 10 uM incubated for 48 hrs by sulforhodamine B assay; type: functional; settings: UACC-257, 48 h, read-out: Activity
HL-60(TB) = assay: Growth inhibition of human HL-60(TB) cells assessed as cell viability at 10 uM incubated for 48 hrs by sulforhodamine B assay; type: functional; settings: HL-60, 48 h, read-out: Activity
SK-MEL-28 = assay: Growth inhibition of human SK-MEL-28 cells assessed as cell viability at 10 uM incubated for 48 hrs by sulforhodamine B assay; type: functional; settings: SK-MEL-28, 48 h, read-out: Activity
NCI-H322M = assay: Growth inhibition of human NCI-H322M cells assessed as cell viability at 10 uM incubated for 48 hrs by sulforhodamine B assay; type: functional; settings: read-out: Activity
T47D = assay: Growth inhibition of human T47D cells assessed as cell viability at 10 uM incubated for 48 hrs by sulforhodamine B assay; type: functional; settings: read-out: Activity
[6] = Growth inhibition of human NCI-ADR-RES cells assessed as cell viability at 10 uM incubated for 48 hrs by sulforhodamine B assay; type: functional; settings: read-out: Activity
UACC-62 = assay: Growth inhibition of human UACC62 cells assessed as cell viability at 10 uM incubated for 48 hrs by sulforhodamine B assay; type: functional; settings: UACC-62, 48 h, read-out: Activity
OVCAR-4 = assay: Growth inhibition of human OVCAR4 cells assessed as cell viability at 10 uM incubated for 48 hrs by sulforhodamine B assay; type: functional; settings: OVCAR-4, 48 h, read-out: Activity

| SMILES | viability at 10 µM [1] | viability at 10 µM (SNB-19) | viability at 10 µM [2] | viability at 10 µM (M14) | viability at 10 µM [3] | viability at 10 µM (NCI-H460) | viability at 10 µM (HOP-62) | viability at 10 µM (MDA-MB-468) | viability at 10 µM (PC-3) | viability at 10 µM [4] | viability at 10 µM (NCI-H23) | viability at 10 µM (786-0) | viability at 10 µM (SW-620) | viability at 10 µM (OVCAR-5) | viability at 10 µM (A498) | viability at 10 µM (SN12C) | viability at 10 µM (HCT-15) | viability at 10 µM (CAKI-1) | viability at 10 µM (Malme-3M) | viability at 10 µM (NCI-H226) | other results |
| --- | --- | --- | --- | --- | --- | --- | --- | --- | --- | --- | --- | --- | --- | --- | --- | --- | --- | --- | --- | --- | --- |
| CN(C)c1ccc(C2CC(c3cc4ccccc4oc3=O)=NN2c2ccc(S(=O)(=O)NC(=O)NCc3ccccc3)cc2)cc1 (stereo not drawn) | 78.2% | 82% | 67.1% | 55% | 79.8% | 65.3% | 57.8% | 68.2% | 67.1% | 49.1% | 67.3% | 68.4% | 73.1% | 74.6% | 51.2% | 77.8% | 32.8% | 49.4% | 89.9% | 74% | Activity (Rattus norvegicus): Active; viability at 10 µM (A549): 61%; viability at 10 µM (DU-145): 84.9%; viability at 10 µM (SK-MEL-5): 62.7%; viability at 10 µM [5]: 70.8%; viability at 10 µM (HCT-116): 48.5%; viability at 10 µM (OVCAR-3): 82.2%; viability at 10 µM (UACC-257): 64.9%; viability at 10 µM (HL-60(TB)): 66.4%; viability at 10 µM (SK-MEL-28): 57.4%; viability at 10 µM (NCI-H322M): 79.6%; viability at 10 µM (T47D): 64%; viability at 10 µM [6]: 83.1%; viability at 10 µM (UACC-62): 37.6%; viability at 10 µM (OVCAR-4): 52.8% |
| COc1ccc(C2CC(c3ccco3)=NN2c2ccc(S(=O)(=O)NC(=O)NCc3ccccc3)cc2)cc1 (stereo not drawn) | 123% | 108% | 105% | 102% | 102% | 106% | 103% | 101% | 92.4% | 80.6% | 108% | 98.6% | 104% | 102% | 96.2% | 106% | 101% | 97.7% | 107% | 97.1% | Activity (Rattus norvegicus): Active; viability at 10 µM (A549): 92.8%; viability at 10 µM (DU-145): 108%; viability at 10 µM (SK-MEL-5): 102%; viability at 10 µM [5]: 90%; viability at 10 µM (HCT-116): 93.9%; viability at 10 µM (OVCAR-3): 113%; viability at 10 µM (UACC-257): 97.9%; viability at 10 µM (HL-60(TB)): 126%; viability at 10 µM (SK-MEL-28): 101%; viability at 10 µM (NCI-H322M): 97.5%; viability at 10 µM (T47D): 84.6%; viability at 10 µM [6]: 104%; viability at 10 µM (UACC-62): 105%; viability at 10 µM (OVCAR-4): 97.1% |
| COc1ccc(NC(=O)NS(=O)(=O)c2ccc(N3N=C(c4cc5ccccc5oc4=O)CC3c3ccc(N(C)C)cc3)cc2)cc1 (stereo not drawn) | 115% | 103% | 84.9% | 95.6% | 95.6% | 105% | 71.8% | 104% | 97.6% | 79.8% | 85.1% | 96.9% | 103% | 102% | 80.6% | 97.1% | 93.1% | 88.9% | 81% | 89.7% | viability at 10 µM (A549): 95%; viability at 10 µM (DU-145): 111%; viability at 10 µM (SK-MEL-5): 98.4%; viability at 10 µM [5]: 91.5%; viability at 10 µM (HCT-116): 82.6%; viability at 10 µM (OVCAR-3): 102%; viability at 10 µM (UACC-257): 96.3%; viability at 10 µM (HL-60(TB)): 130%; viability at 10 µM (SK-MEL-28): 101%; viability at 10 µM (NCI-H322M): 99.9%; viability at 10 µM (T47D): 87.7%; viability at 10 µM [6]: 100%; viability at 10 µM (UACC-62): 88.6%; viability at 10 µM (OVCAR-4): 92.4% |
| O=C(NCc1ccccc1)NS(=O)(=O)c1ccc(N2N=C(c3cc4ccccc4oc3=O)CC2c2cccs2)cc1 (stereo not drawn) | 119% | 108% | 99.6% | 98.8% | 97.7% | 107% | 93.6% | 110% | 108% | 94.2% | 101% | 95.3% | 108% | 111% | 107% | 98.4% | 106% | 94.2% | 90.7% | 98.4% | viability at 10 µM (A549): 99.3%; viability at 10 µM (DU-145): 110%; viability at 10 µM (SK-MEL-5): 101%; viability at 10 µM [5]: 103%; viability at 10 µM (HCT-116): 106%; viability at 10 µM (OVCAR-3): 106%; viability at 10 µM (UACC-257): 104%; viability at 10 µM (HL-60(TB)): 119%; viability at 10 µM (SK-MEL-28): 97.4%; viability at 10 µM (NCI-H322M): 106%; viability at 10 µM (T47D): 97.4%; viability at 10 µM [6]: 103%; viability at 10 µM (UACC-62): 102%; viability at 10 µM (OVCAR-4): 98.2% |
| COc1ccc(C2CC(c3cc4ccccc4oc3=O)=NN2c2ccc(S(=O)(=O)NC(=O)Nc3ccccc3C)cc2)cc1 (stereo not drawn) | 119% | 102% | 84.8% | 91.8% | 92.6% | 99.8% | 87.3% | 100% | 81% | 60.7% | 87.7% | 94.2% | 97.1% | 83.1% | 94.7% | 99.2% | 95.8% | 83.8% | 104% | 85.4% | Activity (Rattus norvegicus): Active; viability at 10 µM (A549): 96.6%; viability at 10 µM (DU-145): 111%; viability at 10 µM (SK-MEL-5): 97.2%; viability at 10 µM [5]: 85.8%; viability at 10 µM (HCT-116): 82.6%; viability at 10 µM (OVCAR-3): 107%; viability at 10 µM (UACC-257): 113%; viability at 10 µM (HL-60(TB)): 108%; viability at 10 µM (SK-MEL-28): 102%; viability at 10 µM (NCI-H322M): 87.1%; viability at 10 µM (T47D): 95.8%; viability at 10 µM [6]: 98.1%; viability at 10 µM (UACC-62): 89.2%; viability at 10 µM (OVCAR-4): 86.9% |
